# Experimental data from US12595253B2, “Benzamides of pyrazolylamino-pyrimidinyl derivatives, and compositions and methods thereof” (LYNK PHARMACEUTICALS CO. LTD., priority 2019, dated 2026).
# Key:
# TYK2 = target: T1, TYK2 (Homo sapiens, UniProt P29597); assay: TYK2 microfluidic kinase assay (Caliper EZ Reader II, FAM labeled peptide substrate); format: biochemical
# T1 construct: purchased Carna Biosciences
# In short: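 Kinase activity was measured in 50 mM HEPES, 0.01% Brij35, 10 mM MgCl2, 2 mM DTT with enzyme set for 10% peptide conversion. Compounds (3-fold dilutions from 5 μM top, 1% DMSO) were pre-incubated 10 min at ambient temperature. Reaction times: JAK1 120 min, JAK2 20 min, JAK2V617F 30 min, TYK2 10 min. EDTA stop.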
# [1] = Liver microsomes study, Phase I stability (RLM); format: in vitro ADME, rat; conditions: pH 7.4; rat liver microsomes 0.5 mg/mL, 1 μM test article; read-out: RLM Clint
# Description: (§1) Commercially available liver microsomes (MsLM vendor: XENOTECH; RLM, DLM, MkL, HLM vendor: Corning) were used for study the Phase I stability of test articles. […] The reaction was initiated by addition of 80 μL of the NADPH regenerating system to 320 µL of each incubation mixture per time point. […] The 0-minute samples were prepared by addition of an 80 μL aliquot of each incubation mixture to 400 μL quench reagent to precipitate proteins. And then a 20 μL aliquot of the NADPH regenerating system was added. At 10, 30, and 90 minutes, the reaction will be stopped by the addition of cold acetonitrile solution containing tolbutamide and propanolol served as internal standard. The samples taken at all time points were centrifuged at 4000×g for 15 minutes. 80 μL of supernatant are taken into 96-well assay plates pre-added with 160 μL ultrapure water, and then analyzed by LC/MS/MS(Shimadzu LC30AD & API4000/API5000)). Concentrations of test articles, control compounds in the samples were determined by using LC/MS/MS) method. Plotting of the chromatograms and peak area integrations are carried out by Analyst (AB Sciex).
# (§2) In the determination of the in vitro elimination constant, ke, of the control compounds, the analyte/internal standard peak area ratios will be converted to percentage remaining (% Remaining) with the following equation: […]
# (§3) The slope was measured by the natural logarithm of the percentage of the residual compound and time, T½ and CLint were calculated according to the following formulas, V/M was equal to the 1/concentration of protein.
# [2] = Liver microsomes study, Phase I stability (HLM); format: in vitro ADME, human; conditions: pH 7.4; human liver microsomes 0.5 mg/mL, 1 μM test article; read-out: HLM Clint
# Description: as §1, §2, §3
# JAK2 = target: T2, JAK2 (Homo sapiens, UniProt O60674); assay: JAK2 microfluidic kinase assay (Caliper EZ Reader II, FAM labeled peptide substrate); format: biochemical
# T2 construct: purchased Carna Biosciences
# In short: (§4)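 Microfluidic mobility-shift assay on Caliper EZ Reader II, FAM-labelled peptide phosphorylation, in 50 mM HEPES, 0.01% Brij35, 10 mM MgCl2, 2 mM DTT, 1% DMSO; enzyme conditions set for 10% substrate conversion.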
# JAK1 = target: T3, JAK1 (Homo sapiens, UniProt P23458); assay: JAK1 microfluidic kinase assay (Caliper EZ Reader II, FAM labeled peptide substrate); format: biochemical; conditions: IC50 JAK1 (5 nM) (1 m MATP), JAK1 5 nM, 1 mM ATP
# T3 construct: purchased Carna Biosciences
# In short: as §4
# JAK2V617F = target: T4, JAK2V617F (Homo sapiens, UniProt O60674, V617F); assay: JAK2V617F microfluidic kinase assay (Caliper EZ Reader II, FAM labeled peptide substrate); format: biochemical; conditions: JAK2V617F 2.5 nM, 1 mM ATP
# T4 construct: purchased Carna Biosciences
# In short: as §4
# [3] = IC50 TYK2 (10 nM) (Km ATP), TYK2 10 nM, Km ATP
# [4] = IC50 JAK2 ([…]) (1 mM ATP), 1 mM ATP
# [5] = IC50 JAK2 ([…]) (Km ATP), Km ATP
# [6] = IC50 TYK2 ([…]) (1 mM ATP), TYK2 […], 1 mM ATP
# T4 sequence (O60674 whole entry V617F): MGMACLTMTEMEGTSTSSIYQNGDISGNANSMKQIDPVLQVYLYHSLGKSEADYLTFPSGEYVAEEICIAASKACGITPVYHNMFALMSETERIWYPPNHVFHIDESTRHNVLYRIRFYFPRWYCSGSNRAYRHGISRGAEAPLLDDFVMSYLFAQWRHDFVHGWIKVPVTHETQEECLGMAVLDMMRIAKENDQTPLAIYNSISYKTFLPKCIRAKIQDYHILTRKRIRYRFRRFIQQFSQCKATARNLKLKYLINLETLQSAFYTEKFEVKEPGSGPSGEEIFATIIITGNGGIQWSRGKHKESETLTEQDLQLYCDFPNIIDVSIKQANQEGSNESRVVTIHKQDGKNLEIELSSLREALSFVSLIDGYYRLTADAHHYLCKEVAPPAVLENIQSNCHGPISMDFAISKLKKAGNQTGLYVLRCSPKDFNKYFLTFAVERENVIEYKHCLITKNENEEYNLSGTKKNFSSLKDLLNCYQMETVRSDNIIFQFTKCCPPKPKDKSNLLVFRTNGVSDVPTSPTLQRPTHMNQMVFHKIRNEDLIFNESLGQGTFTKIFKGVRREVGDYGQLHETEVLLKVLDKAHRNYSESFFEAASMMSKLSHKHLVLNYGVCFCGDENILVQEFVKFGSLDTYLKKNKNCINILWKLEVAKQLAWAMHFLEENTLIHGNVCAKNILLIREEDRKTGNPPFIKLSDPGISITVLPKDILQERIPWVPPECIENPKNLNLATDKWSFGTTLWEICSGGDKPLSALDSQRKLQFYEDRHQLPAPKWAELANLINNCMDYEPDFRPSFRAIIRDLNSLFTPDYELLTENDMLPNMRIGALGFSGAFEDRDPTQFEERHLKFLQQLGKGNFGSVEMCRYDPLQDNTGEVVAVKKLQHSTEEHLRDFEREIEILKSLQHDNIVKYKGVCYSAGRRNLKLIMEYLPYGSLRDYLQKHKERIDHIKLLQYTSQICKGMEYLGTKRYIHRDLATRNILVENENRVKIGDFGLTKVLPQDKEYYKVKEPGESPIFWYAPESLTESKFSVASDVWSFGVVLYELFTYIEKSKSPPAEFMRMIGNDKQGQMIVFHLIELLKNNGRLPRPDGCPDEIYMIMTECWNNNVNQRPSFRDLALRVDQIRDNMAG
# T1 sequence (P29597 whole entry): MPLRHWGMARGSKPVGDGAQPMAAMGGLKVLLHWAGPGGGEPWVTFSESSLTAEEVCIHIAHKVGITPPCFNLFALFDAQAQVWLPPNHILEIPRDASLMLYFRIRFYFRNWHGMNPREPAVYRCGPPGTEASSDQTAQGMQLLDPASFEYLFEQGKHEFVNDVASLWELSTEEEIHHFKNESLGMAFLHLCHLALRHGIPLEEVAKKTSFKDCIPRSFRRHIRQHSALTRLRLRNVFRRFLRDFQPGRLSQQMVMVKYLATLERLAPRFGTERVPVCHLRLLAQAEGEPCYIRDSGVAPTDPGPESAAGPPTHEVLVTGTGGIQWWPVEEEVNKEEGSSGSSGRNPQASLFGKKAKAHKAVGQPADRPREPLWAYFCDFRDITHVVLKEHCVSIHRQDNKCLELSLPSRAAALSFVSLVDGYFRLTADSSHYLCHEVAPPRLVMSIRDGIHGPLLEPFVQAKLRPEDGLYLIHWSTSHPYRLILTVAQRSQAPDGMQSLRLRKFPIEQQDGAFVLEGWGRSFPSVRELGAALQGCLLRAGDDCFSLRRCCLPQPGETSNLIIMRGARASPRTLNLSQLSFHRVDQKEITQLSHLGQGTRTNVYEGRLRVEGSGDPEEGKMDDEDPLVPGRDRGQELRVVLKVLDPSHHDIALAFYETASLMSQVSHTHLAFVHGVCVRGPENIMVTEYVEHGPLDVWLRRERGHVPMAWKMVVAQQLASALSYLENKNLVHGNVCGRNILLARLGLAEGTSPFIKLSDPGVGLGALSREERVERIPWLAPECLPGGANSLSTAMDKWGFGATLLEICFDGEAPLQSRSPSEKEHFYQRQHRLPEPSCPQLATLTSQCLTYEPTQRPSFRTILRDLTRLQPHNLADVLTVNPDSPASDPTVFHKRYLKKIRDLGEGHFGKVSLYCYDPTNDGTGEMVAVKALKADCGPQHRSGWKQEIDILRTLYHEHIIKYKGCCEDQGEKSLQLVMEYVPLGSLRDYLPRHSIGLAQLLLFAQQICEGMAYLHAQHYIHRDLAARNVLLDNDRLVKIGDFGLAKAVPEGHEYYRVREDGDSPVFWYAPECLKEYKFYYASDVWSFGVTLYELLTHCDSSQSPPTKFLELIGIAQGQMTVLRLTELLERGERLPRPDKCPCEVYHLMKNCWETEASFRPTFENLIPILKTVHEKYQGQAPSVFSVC
# T3 sequence (P23458 whole entry): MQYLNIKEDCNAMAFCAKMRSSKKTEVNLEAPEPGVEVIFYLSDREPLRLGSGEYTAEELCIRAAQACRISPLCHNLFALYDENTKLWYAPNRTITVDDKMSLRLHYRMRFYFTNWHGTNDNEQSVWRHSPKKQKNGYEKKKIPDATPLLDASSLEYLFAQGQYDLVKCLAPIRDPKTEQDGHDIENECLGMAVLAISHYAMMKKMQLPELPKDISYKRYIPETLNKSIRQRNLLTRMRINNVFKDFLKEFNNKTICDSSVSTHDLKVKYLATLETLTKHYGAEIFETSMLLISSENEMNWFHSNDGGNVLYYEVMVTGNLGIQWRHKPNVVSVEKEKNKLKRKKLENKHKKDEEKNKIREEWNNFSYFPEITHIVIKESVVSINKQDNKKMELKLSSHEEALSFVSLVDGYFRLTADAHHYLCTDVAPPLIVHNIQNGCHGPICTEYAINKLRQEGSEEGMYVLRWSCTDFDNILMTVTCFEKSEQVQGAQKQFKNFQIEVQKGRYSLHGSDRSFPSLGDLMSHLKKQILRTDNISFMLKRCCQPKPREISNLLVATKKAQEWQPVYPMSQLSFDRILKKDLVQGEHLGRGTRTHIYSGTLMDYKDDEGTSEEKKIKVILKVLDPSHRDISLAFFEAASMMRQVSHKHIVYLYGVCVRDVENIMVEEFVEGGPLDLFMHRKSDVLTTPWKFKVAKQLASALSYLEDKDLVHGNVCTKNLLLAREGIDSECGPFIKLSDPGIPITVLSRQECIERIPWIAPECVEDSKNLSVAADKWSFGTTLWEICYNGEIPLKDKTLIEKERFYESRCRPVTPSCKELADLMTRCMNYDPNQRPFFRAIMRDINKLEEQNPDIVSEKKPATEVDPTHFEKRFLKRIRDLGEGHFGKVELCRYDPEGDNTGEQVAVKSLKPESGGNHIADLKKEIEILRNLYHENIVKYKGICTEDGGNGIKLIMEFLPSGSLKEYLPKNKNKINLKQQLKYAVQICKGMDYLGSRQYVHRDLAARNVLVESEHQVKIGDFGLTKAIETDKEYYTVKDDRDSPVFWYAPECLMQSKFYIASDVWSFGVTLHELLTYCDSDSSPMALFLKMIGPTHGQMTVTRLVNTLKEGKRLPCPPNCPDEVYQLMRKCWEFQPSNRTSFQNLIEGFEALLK
# T2 sequence (O60674 whole entry): as the sequence (O60674 whole entry V617F) above, with F617V counted along it
IC50 (TYK2; [3]) [nM],microsomal CLint at 1 μM [1] [µL/min/mg],microsomal CLint at 1 μM [2] [µL/min/mg],IC50 (JAK2; [4]) [nM],IC50 (JAK2; [5]) [nM],IC50 (TYK2; [6]) [nM],IC50 (JAK1) [nM],IC50 (JAK2V617F) [nM],Structure (SMILES)
17.2,110,16.9,70.4,0.73,–,–,–,"Cc1cnc(Nc2cnn(C3CC3)c2)nc1-c1ccc(C(=O)NC2(C#N)CC2)cc1 [Example 160, N-(1-cyanocyclopropyl)-4-(2-((1-cyclopropyl-1H-pyrazol-4-yl)amino)-5-methylpyrimidin-4-yl)benzamide]"
–,91.8,23.1,0.59,–,1.04,0.85,–,"Cc1cnc(Nc2cnn(C3CCN(C)CC3)c2)nc1-c1ccc(C(=O)N[C@H](C#N)C2CC2)cc1 [Example 180, (S)—N-(cyano(cyclopropyl)methyl)-4-(5-methyl-2-((1-(1-methylpiperidin-4-yl)-1H-pyrazol-4-yl)amino)pyrimidin-4-yl)benzamide]"
–,161,7.27,15.6,–,22.1,10.4,–,"Cc1cnc(Nc2cnn(C(C)C(F)(F)F)c2)nc1-c1ccc(C(=O)N[C@@H](C)C#N)cc1 (stereo partly drawn) [Example 166, N—((S)-1-Cyanoethyl)-4-(5-methyl-2-((1-(1,1,1-trifluoropropan-2-yl)-1H-pyrazol-4-yl)amino)pyrimidin-4-yl)benzamide]"
–,124,142,0.88,–,–,23.9,28.2,"Cc1cnc(Nc2cnn(C3CCN(C(=O)C4CC4)CC3)c2)nc1-c1ccc(C(=O)NCC2(C#N)CC2)cc1 [Example 158, N-((1-cyanocyclopropyl)methyl)-4-(2-((1-(1-(cyclopropanecarbonyl)piperidin-4-yl)-1H-pyrazol-4-yl)amino)-5-methylpyrimidin-4-yl)benzamide]"
–,80.1,6.7,0.35,–,–,12,15.8,"CO[C@H]1CC[C@H](n2cc(Nc3ncc(C)c(-c4ccc(C(=O)N[C@@H](C)C#N)cc4)n3)cn2)CC1 [Example 91, N—((S)-1-cyanoethyl)-4-(2-((1-(trans-4-methoxycyclohexyl)-1H-pyrazol-4-yl)amino)-5-methylpyrimidin-4-yl)benzamide]"
–,19.2,2,–,4.5,–,75.1,362,"Cc1cnc(Nc2cnn(C)c2)nc1-c1ccc(C(=O)N[C@H](C)C#N)cc1 [Example 101, (R)—N-(1-cyanoethyl)-4-(5-methyl-2-((1-methyl-1H-pyrazol-4-yl)amino)pyrimidin-4-yl)benzamide]"
12,54.9,68.4,0.69,–,–,–,–,"Cc1cnc(Nc2cnn(C3CCN(C(=O)C4CC4)CC3)c2)nc1-c1ccc(C(=O)N[C@@H](C)C#N)cc1 [Example 163, (S)—N-(1-cyanoethyl)-4-(2-((1-(1-(cyclopropanecarbonyl)piperidin-4-yl)-1H-pyrazol-4-yl)amino)-5-methylpyrimidin-4-yl)benzamide]"
–,2.58,6.6,–,8.4,–,75.4,669,"COCCNC(=O)c1ccc(-c2nc(Nc3cnn(C)c3)ncc2C)cc1 [Example 6, N-(2-Methoxyethyl)-4-(5-methyl-2-((1-methyl-1H-pyrazol-4-yl)amino)pyrimidin-4-yl)benzamide]"
–,85.9,96,< 0.25,–,–,14.9,0.67,"Cc1cnc(Nc2cnn(C3CCN(C(=O)C4(F)CC4)CC3)c2)nc1-c1ccc(C(=O)NCC#N)cc1 [Example 152, N-(cyanomethyl)-4-(2-((1-(1-(1-fluorocyclopropanecarbonyl)piperidin-4-yl)-1H-pyrazol-4-yl)amino)-5-methylpyrimidin-4-yl)benzamide]"
–,38.4,11.1,2.17,0.25,–,14.9,23.7,"Cc1cnc(Nc2cnn(C3CC(C#N)C3)c2)nc1-c1ccc(C(=O)NCC#N)cc1 (centres unmarked) [Example 106, 4-(2-((1-(3-Cyanocyclobutyl)-1H-pyrazol-4-yl)amino)-5-methylpyrimidin-4-yl)-N-(cyanomethyl)benzamide]"
–,599,1430,0.4,–,–,15.4,17.3,"Cc1cnc(Nc2cnn(C3CCN(C(=O)[C@H]4CC4(C)C)CC3)c2)nc1-c1ccc(C(=O)NCC#N)cc1 [Example 143, (S)—N-(cyanomethyl)-4-(2-((1-(1-(2,2-dimethylcyclopropanecarbonyl)piperidin-4-yl)-1H-pyrazol-4-yl)amino)-5-methylpyrimidin-4-yl)benzamide]"
–,38.6,19.4,–,–,–,13.9,30.1,"Cc1cnc(Nc2cnn(C3CCOCC3)c2)nc1-c1ccc(C(=O)N[C@@H](C)C#N)cc1 [Example 144, (S)—N-(1-cyanoethyl)-4-(5-methyl-2-((1-(tetrahydro-2H-pyran-4-yl)-1H-pyrazol-4-yl)amino)pyrimidin-4-yl)benzamide]"
–,76.4,49.1,79,–,–,6.43,119,"Cc1cnc(Nc2cnn(C(C)C(F)(F)F)c2)nc1-c1ccc(C(=O)NCC#N)cc1 (centres unmarked) [Example 112, N-(cyanomethyl)-4-(5-methyl-2-((1-(1,1,1-trifluoropropan-2-yl)-1H-pyrazol-4-yl)amino)pyrimidin-4-yl)benzamide]"
–,32.5,42.9,–,–,–,12.4,7.22,"Cc1cnc(Nc2cnn(C3C[C@H]4CC[C@@H](C3)O4)c2)nc1-c1ccc(C(=O)N[C@@H](C)C#N)cc1 (stereo partly drawn) [Example 70, 4-(2-((1-((1R,5S)-8-oxabicyclo[3.2.1]octan-3-yl)-1H-pyrazol-4-yl)amino)-5-methylpyrimidin-4-yl)-N—((S)-1-cyanoethyl)benzamide]"
–,628,9.1,155,6.4,–,257,341,"Cc1cnc(Nc2cnn(C3CC3)c2)nc1-c1ccc(C(=O)N2CC(C#N)C2)c(F)c1 [Example 140, 1-(4-(2-((1-Cyclopropyl-1H-pyrazol-4-yl)amino)-5-methylpyrimidin-4-yl)-2-fluorobenzoyl)azetidine-3-carbonitrile]"
–,77.3,35.2,13,–,–,19,56,"CC(C)(C#N)CNC(=O)c1ccc(-c2nc(Nc3cnn(C4CC4)c3)ncc2Cl)cc1 [Example 123, 4-(5-Chloro-2-((1-cyclopropyl-1H-pyrazol-4-yl)amino)pyrimidin-4-yl)-N-(2-cyano-2-methylpropyl)benzamide]"
–,80.8,56.4,–,–,–,23.5,4.19,"Cc1cnc(Nc2cnn(C3CCN(C(=O)C4CC4)CC3)c2)nc1-c1ccc(C(=O)NCC#N)nc1 [Example 150, N-(cyanomethyl)-5-(2-((1-(1-(cyclopropanecarbonyl)piperidin-4-yl)-1H-pyrazol-4-yl)amino)-5-methylpyrimidin-4-yl)picolinamide]"
–,228,141,–,–,–,30.4,9.07,Cc1cnc(Nc2cnn(C3C[C@@H](C)O[C@@H](C)C3)c2)nc1-c1ccc(C(=O)NCC#N)cc1 (some centres unmarked) [Example 68]
28.8,40.7,20.7,50.5,0.54,–,–,–,"Cc1cnc(Nc2cnn(C3CCOCC3)c2)nc1-c1ccc(C(=O)NCC2(C#N)CC2)cc1 [Example 37, N-((1-cyanocyclopropyl)methyl)-4-(5-methyl-2-((1-(tetrahydro-2H-pyran-4-yl)-1H-pyrazol-4-yl)amino)pyrimidin-4-yl)benzamide]"
